Tested on: Rat Lung
Details: in vivo, iv

^3H-daunomycin
% in lung (total drug in the lung as a percentage of the original dose): 0.65%
% inj/g tissue: 0.63 % inj/g

Reference: US20070160531A1 (priority 1995, published 2007)
